Assay results published in patent US11161837B2, “Benzofuran derivatives for the treatment of hepatitis C” (BRISTOL-MYERS SQUIBB COMPANY, priority 2016, dated 2021).

Each molecule was assayed on genotype 1b (Con-1) HCV replicon in Huh-7 cells (assay: HCV replicon luciferase assay). Conditions: 1b replicon, Huh-7, Renilla luciferase, 3 days incubation.
Format: cell-based
Protocol: The cell lines used to evaluate compounds consist of a human hepatocyte derived cell line (Huh-7) that constitutively expresses a genotype 1b (Con-1) HCV replicon or a genotype 1b (Con-1) HCV replicon with an asparagine replacing the cysteine at amino acid 316, or a genotype 2a (JFH-1) replicon, containing a Renilla luciferase reporter gene. These cells were maintained in Dulbecco's modified Eagle medium (DMEM) containing 10% FBS, 100 U/mL penicillin/streptomycin and 1.0 mg/mL G418.
HCV Replicon Luciferase Assay.
To evaluate compound efficacy, titrated compounds were transferred to sterile 384-well tissue culture treated plates, and the plates were seeded with HCV replicon cells (50 μL at a density of 2.4×10^3 cells/well) in DMEM containing 4% FBS (final DMSO concentration at 0.5%). After 3 days incubation at 37° C., cells were analyzed for Renilla Luciferase activity using the EnduRen substrate (Promega cat # E6485) according to the manufacturer's directions. Briefly, the EnduRen substrate was diluted in DMEM and then added to the plates to a final concentration of 7.5 μM. The plates were incubated for at least 1 h at 37° C. then read on a Viewlux Imager (PerkinElmer) using a luminescence program. The 50% effective concentration (EC50) was calculated using the four-parameter logistic formula noted above.
`CNC(=O)c1c(-c2ccc(F)cc2)oc2cc(CCC(F)(F)F)c(-c3cccc(C(=O)NC4(c5ncccn5)CC(OC(F)F)C4)c3)cc12` (single isomer, unassigned) [Example 29b] showed an EC50 of 30 nM.
With `CCCc1cc2oc(-c3ccc(F)cc3)c(C(=O)NC)c2cc1-c1cccc(C(=O)NC2(C)CC(OC(F)F)C2)c1` (single isomer, unassigned) [Example 55b, 5-(3-((3-(Difluoromethoxy)-1-methylcyclobutyl)carbamoyl)phenyl)-2-(4-fluorophenyl)-N-methyl-6-propylbenzofuran-3-carboxamide] the EC50 was 30 nM.
`CNC(=O)c1c(-c2ccc(F)cc2)oc2cc(CCC(F)(F)F)c(-c3cc(C(=O)NC4(c5ncccn5)CC(OC(F)(F)F)C4)c(OC)cc3C)cc12` (single isomer, unassigned) [Example 46b, 2-(4-Fluorophenyl)-5-(4-methoxy-2-methyl-5-((1-(pyrimidin-2-yl)-3-(trifluoromethoxy)cyclobutyl)carbamoyl)phenyl)-N-methyl-6-(3,3,3-trifluoropropyl)benzofuran-3-carboxamide] was tested, and the EC50 was 80 nM.
For `CNC(=O)c1c(-c2ccc(F)cc2)oc2cc(CCC(F)(F)F)c(-c3cc(C(=O)NC4(C)CC(OC(F)F)C4)c(OC)cc3C)cc12` (single isomer, unassigned) [Example 53b, 5-(5-((3-(Difluoromethoxy)-1-methylcyclobutyl)carbamoyl)-4-methoxy-2-methylphenyl)-2-(4-fluorophenyl)-N-methyl-6-(3,3,3-trifluoropropyl)benzofuran-3-carboxamide], the EC50 was 60 nM.

Same assay, conditions: Hepatitis C virus, Huh-7, 72 h, 1b replicon, Huh-7, Renilla luciferase, 3 days incubation
In the case of `CCOc1cc2oc(-c3ccc(F)cc3)c(C(=O)NC)c2cc1-c1cccc(C(=O)NC2(c3ncon3)CC(OC(F)F)C2)c1` (stereo not drawn) [Example 70, 5-(3-((3-(Difluoromethoxy)-1-(1,2,4-oxadiazol-3-yl)cyclobutyl)carbamoyl)phenyl)-6-ethoxy-2-(4-fluorophenyl)-N-methylbenzofuran-3-carboxamide], the EC50 is reported as 6.47 nM.
Molecule `CCCc1cc2oc(-c3ccc(F)cc3)c(C(=O)NC)c2cc1-c1cccc(C(=O)NC2(c3ncccn3)CC(OC(F)F)C2)c1` (stereo not drawn) [Example 33, 5-(3-((3-(Difluoromethoxy)-1-(pyrimidin-2-yl)cyclobutyl)carbamoyl)phenyl)-2-(4-fluorophenyl)-N-methyl-6-propylbenzofuran-3-carboxamide] has an EC50 of 4.55 nM.
`CCCc1cc2oc(-c3ccc(F)cc3)c(C(=O)NC)c2cc1-c1ccc(OC)c(C(=O)NC2(c3ncccn3)CC(OC(F)F)C2)c1` (stereo not drawn) [Example 37] gave an EC50 of 6.08 nM.
`CNC(=O)c1c(-c2ccc(F)cc2)oc2cc(CCC(F)(F)F)c(-c3cc(C(=O)NC4(c5ncccn5)CC(OC(F)F)C4)c(OC)cc3C)cc12` (stereo not drawn) [Example 41, 5-(5-((3-(Difluoromethoxy)-1-(pyrimidin-2-yl)cyclobutyl)carbamoyl)-4-methoxy-2-methylphenyl)-2-(4-fluorophenyl)-N-methyl-6-(3,3,3-trifluoropropyl)benzofuran-3-carboxamide] gave an EC50 of 20 nM.
In the case of `CNC(=O)c1c(-c2ccc(F)cc2)oc2cc(CCC(F)(F)F)c(-c3cc(C(=O)NC4(c5ncccn5)CC(OC(F)(F)F)C4)c(OC)cc3C)cc12` (single isomer, unassigned) [Example 46a, 2-(4-Fluorophenyl)-5-(4-methoxy-2-methyl-5-((1-(pyrimidin-2-yl)-3-(trifluoromethoxy)cyclobutyl)carbamoyl)phenyl)-N-methyl-6-(3,3,3-trifluoropropyl)benzofuran-3-carboxamide], the EC50 is reported as 40 nM.
For `CNC(=O)c1c(-c2ccc(F)cc2)oc2cc(CCC(F)(F)F)c(-c3cc(C(=O)NC4(C)CC(OC(F)F)C4)c(OC)cc3C)cc12` (single isomer, unassigned) [Example 53a, 5-(5-((3-(Difluoromethoxy)-1-methylcyclobutyl)carbamoyl)-4-methoxy-2-methylphenyl)-2-(4-fluorophenyl)-N-methyl-6-(3,3,3-trifluoropropyl)benzofuran-3-carboxamide], the EC50 was 60 nM.
In the case of `CNC(=O)c1c(-c2ccc(F)cc2)oc2cc(CCC(F)(F)F)c(-c3ccc(F)c(C(=O)NC4(c5ncccn5)CC(OC(F)(F)F)C4)c3)cc12` (single isomer, unassigned) [Example 49a, 5-(4-Fluoro-3-((1-(pyrimidin-2-yl)-3-(trifluoromethoxy)cyclobutyl)carbamoyl)phenyl)-2-(4-fluorophenyl)-N-methyl-6-(3,3,3-trifluoropropyl)benzofuran-3-carboxamide], the EC50 is reported as 20 nM.
`CCN(c1cc2oc(-c3ccc(F)cc3)c(C(=O)NC)c2cc1-c1cccc(C(=O)NC2(c3ncccn3)CC(OC(F)F)C2)c1)S(C)(=O)=O` (stereo not drawn) [Example 24, 5-(3-((3-(difluoromethoxy)-1-(pyrimidin-2-yl)cyclobutyl)carbamoyl)phenyl)-6-(N-ethylmethylsulfonamido)-2-(4-fluorophenyl)-N-methylbenzofuran-3-carboxamide] showed an EC50 of 2.2 nM.
For `CNC(=O)c1c(-c2ccc(F)cc2)oc2cc(CCC(F)(F)F)c(-c3ccc(F)c(C(=O)NC4(C)CC(OC(F)F)C4)c3)cc12` (single isomer, unassigned) [Example 63a, 5-(3-((3-(Difluoromethoxy)-1-methylcyclobutyl)carbamoyl)-4-fluorophenyl)-2-(4-fluorophenyl)-N-methyl-6-(3,3,3-trifluoropropyl)benzofuran-3-carboxamide], the EC50 was 10 nM.
Molecule `CCN(c1cc2oc(-c3ccc(F)cc3)c(C(=O)NC)c2c(F)c1-c1cccc(C(=O)NC2(c3ncccn3)CC(OC(F)F)C2)c1)S(C)(=O)=O` (stereo not drawn) [Example 21, 5-(3-((3-(Difluoromethoxy)-1-(pyrimidin-2-yl)cyclobutyl)carbamoyl)phenyl)-6-(N-ethylmethylsulfonamido)-4-fluoro-2-(4-fluorophenyl)-N-methylbenzofuran-3-carboxamide] has an EC50 of 2.23 nM.
Work on `CCCc1cc2oc(-c3ccc(F)cc3)c(C(=O)NC)c2cc1-c1ccc(F)c(C(=O)NC2(c3ncccn3)CC(OC(F)(F)F)C2)c1` (single isomer, unassigned) [Example 48a, 5-(4-Fluoro-3-((1-(pyrimidin-2-yl)-3-(trifluoromethoxy)cyclobutyl)carbamoyl)phenyl)-2-(4-fluorophenyl)-N-methyl-6-propylbenzofuran-3-carboxamide] yielded an EC50 of 20 nM.
In the case of `CCCc1cc2oc(-c3ccc(F)cc3)c(C(=O)NC)c2cc1-c1cc(C(=O)NC2(c3ncccn3)CC(OC(F)(F)F)C2)c(OC)cc1C` (single isomer, unassigned) [Example 50a, 2-(4-Fluorophenyl)-5-(4-methoxy-2-methyl-5-((1-(pyrimidin-2-yl)-3-(trifluoromethoxy)cyclobutyl)carbamoyl)phenyl)-N-methyl-6-propylbenzofuran-3-carboxamide], the EC50 is reported as 120 nM.
`CCCc1cc2oc(-c3ccc(F)cc3)c(C(=O)NC)c2cc1-c1ccc(F)c(C(=O)NC2(c3ncccn3)CC(OC(F)F)C2)c1` (stereo not drawn) [Example 32, 5-(3-((3-(Difluoromethoxy)-1-(pyrimidin-2-yl)cyclobutyl)carbamoyl)-4-fluorophenyl)-2-(4-fluorophenyl)-N-methyl-6-propylbenzofuran-3-carboxamide] was tested, and the EC50 was 9.02 nM.
In the case of `CCN(c1cc2oc(-c3ccc(F)cc3)c(C(=O)NC)c2c(F)c1-c1cccc(C(=O)NC2(c3ncccn3)CC(F)C2)c1)S(C)(=O)=O` (stereo not drawn) [Example 22, 6-(N-ethylmethylsulfonamido)-4-fluoro-5-(3-((3-fluoro-1-(pyrimidin-2-yl)cyclobutyl)carbamoyl)phenyl)-2-(4-fluorophenyl)-N-methylbenzofuran-3-carboxamide], the EC50 is reported as 4.94 nM.
